Patent US20150037341A1, “Diagnostic and Therapeutic Method” (Plysackaridforskning i Uppsala AB, priority 2011, published 2015)

Experiments:
[1] = target: T1, recombinant wild-type TTR (Homo sapiens, UniProt P02766); test: Congo red staining of TTR after incubation with heparin; assay type: biochemical; details: fluorescence and polarized light microscopy
T1 construct: made in house; host or cells: bacteria
Method: (§1) (A, B) The TTR dissolved in phosphate buffer (50 μM, pH 2.7) was incubated alone or with different heparin or HS (12 μM) at 37° C. for 48 h. After incubation the samples were mixed with ThT and fluorescence was measured. Data shown represent triplicate experiments (means±SEM). (C) TTR (500 μM) incubated with heparin (0, 5 or 20 μM) under the same conditions were analyzed with native-PAGE as described in Methods. […] The fibrils migrated in the stacking gel is not shown. (D) Microscopic analysis of the TTR after incubation with heparin. The sample was spotted on a glass and stained with Congo red. Images were taken under fluorescent light (Original magnification: 20×; Scale bar: 5 μm) and polarized light (insert).

[2] = target: T2, recombinant human WT TTR (Homo sapiens, UniProt P02766); test: Thioflavin T (ThT) fluorescence assay of TTR fibrillization in vitro; assay type: biochemical
T2 construct: made in house; host or cells: bacteria
Method: as §1
(§2) Recombinant wild-type TTR was expressed in bacteria and purified as described previously (Furuya et al. (1991) Biochemistry 30:2415-2421). The purified protein was dissolved in 20 mM phosphate buffer-citric acid (pH 2.7, 3.5, 4.5 or 7.4) to a final concentration of 50 μM for Thioflavin T fluorescence or 500 μM for native-PAGE. Heparin (3H-labeled or unlabeled) and HS were added to the TTR solution to the concentrations as indicated in the respective figure legend. The samples were incubated at 37° C. for the time period as specified.
After incubation, 5 μl of the sample was mixed with ThT in water to a final concentration of 20 μM ThT. The mixture was transferred to a flat bottom-black 96-well plate (Grainer) and the fluorescence was measured at excitation- and emission wavelength of 440 and 480 nm, respectively (Gain=55, FARcyte instruments). Samples aggregated at different pHs were adjusted to neutral pH after completed incubation prior to ThT staining. The experiments were run in duplicate or triplicate.

[3] = target: T1, recombinant wild-type TTR; test: Native-PAGE of TTR incubated with heparin (Coomassie, Alcian blue, 3H counting of gel sections); assay type: biochemical
Method: TTR dissolved in phosphate buffer (pH 2.7) was co-incubated with heparin (mixture of ^3H-labeled and non-labeled) at 37° C. for 48 h. (A) The TTR-heparin co-incubated sample and heparin alone were separated with native-PAGE and stained with Alcian blue. (B) An identical set of samples was separated on the native-PAGE as above, and each lane was cut into six sections (as illustrated in A). The gel slices were incubated for 2 hr in H2O to extract the heparin. The radioactivity was measured by scintillation counting.
TTR dissolved in phosphate buffer (pH 2.7) was incubated without heparin at 37° C. for 48 h. Heparin (mixture of ^3H-labeled and nonlabeled) was then added and the TTR-heparin sample was incubated for an additional hour at 37° C. The sample was thereafter separated by native-PAGE and the gel was cut into 6 sections as illustrated in FIG. 4A. Radioactivity in each section was measured by scintillation counting. Data represents triplicate experiments (mean±SEM).
as §2
After incubation, 10 μl of the samples was mixed with 2.5 μl of a 5× sample buffer (0.3 M Tris-HCl, pH 6.8, 0.05% bromophenol blue, 50% glycerol) and loaded onto a 10% polyacrylamide gel without SDS. […] For quantification of ^3H-labeled heparin, the corresponding lanes in the gel were cut into six sections including the stacking gel (see FIG. 4A) that were transferred to a scintillation vial in 3 ml of H2O. After 2 hr incubation, 2 ml of scintillation cocktail was added and the radioactivity was measured.

[4] = target: T3, full-length TTR (native, dissociated or aggregated) (Homo sapiens, UniProt P02766); test: Nitrocellulose-filter trapping of 3H-labeled heparin bound to full-length TTR; assay type: binding
T3 construct: Equal mole of TTR-peptides or full-length protein (with or without acidic dissociation); made in house; host or cells: bacteria
Method: (A) TTR amino acid sequence where histidine “(+)” and other basic amino acids “+” are marked. (B) Equal mole of TTR-peptides or full-length protein (with or without acidic dissociation), were incubated with ^3H-labeled heparin (1500 cpm) at pH 5.0. The amount of ^3H-labeled heparin bound to the peptides was analyzed using a nitrocellulose-filter trapping method.
Recombinant wild type TTR (500 μM) was dissolved in phosphate buffer (pH 7.4 or 2.7) and incubated at 37° C. for the time period as indicated. (a) The incubated samples were analyzed for their degree of aggregation with native PAGE. (b) The samples were incubated with ^3H-labelled heparin for 30 min at room temperature. The amount of heparin bound to the samples with different aggregation degree was analyzed by a nitrocellulose-filter trapping method.

For heparin, the “Congo red staining of fibrils” value [1] was “Congo red positive fibrils”, the “ThT fluorescence (fibril content)” value ([2]; TTR 50 μM, pH 2.7, 37° C., 48 h, in the presence of heparin) was 8000 AU and the “Effect on TTR fibrillization/aggregation (ThT fluorescence)” value ([2]; TTR 50 μM, pH 2.7, heparin or HS 12 μM, 37° C., 48 h) was “prompted TTR aggregation, forming substantial amounts of amyloid-like fibrils”. The “Effect on TTR fibrillization (ThT fluorescence)” value ([2]; pH 2.7 and 5.0) was “greatly promoted TTR fibrillization”, the “Migration pattern of TTR aggregates on native-PAGE” value ([3]; TTR 500 μM, heparin 5 or 20 μM, pH 2.7, 37° C., 48 h) was “substantial macromolecular TTR aggregates migrating in the top of the gel” and the “Interaction of 3H-labeled heparin with pre-aggregated TTR (gel sections)” value ([3]; TTR aggregated 48 h without heparin, then heparin for 1 h at 37° C.) was “no or very little heparin interacted with aggregated TTR”. The “Recovery of 3H-labeled heparin in gel sections after co-incubation with TTR” value ([3]; pH 2.7, 37° C., 48 h co-incubation) was “substantially recovered in section 1”, the “Binding of 3H-labelled heparin to aggregated TTR” value ([4]; TTR 500 μM pre-incubated at pH 7.4 or 2.7, heparin 30 min at room temperature) was “binds to aggregated TTR” and the “Binding of 3H-labeled heparin to dissociated versus native full-length TTR” value ([4]; pH 5.0) was “preferentially bound to dissociated TTR”.
